Results on 29 molecules are retold here after patent publication US6881824B1, “Peptides suitable for use in antigen specific immunosuppressive therapy” (Akzo Nobel N.V., priority 1996, dated 2005).

Test [1] concerns the target T1, DR4 (DRB1*0401) molecules (Homo sapiens, UniProt P01903+P01911, A100K/A169T/F76Y/I96L/K127E/L162R/M171V/N62H/P40V/Q125Y/R42H/S133A/S149N/S66Y/V115G/V209L/W38E).
T1 construct: molecules were purified from the homozygous EBV-transformed human B lymphoblastoid cell lines Huly138IC2 and BM92 using the mAb; endogenous in cells
As to the kind of experiment: Peptide HLA-DR binding assay (semi-quantitative competition binding). The conditions noted are these: for IC50: Table IIIA, competition with biotinylated marker peptide HA 309 Y→F, pH5.0, 44 hr RT. On the procedure: DR4 (DRB1*0401) and DR4 (DRB1*0404) molecules were purified from the homozygous EBV-transformed human B lymphoblastoid cell lines Huly138IC2 and BM92 using the mAb t243, directed against a monomorphic determinant on the DR-complex (Lampson, L. A and R. Levy (1980), J. Immunol. 125:293 299).
The peptide binding studies were performed using a semi-quantitative competition binding assay (Joosten et al 1994, Int. Immunol. 6, 751). Briefly, purified HLA-DR molecules (30 nM DR4(DRB1*0401) or 15 nM DR4 (DRB1*0404) were incubated at pH5.0 with 50 nM biotinylated marker peptide (HA 309y→F) and a concentration range of competitor peptide in a final volume of 25 μl binding buffer (PBS containing 0.01% […], 0.05% NP-40, 5% DMSO, 1 mM AEBSF, 1 mM N-ethyl maleimide, 8 mM EDTA and 10 μm pepstatin A). After 44 hr of incubation at RT, HLA DR bound marker peptide was separated from free marker peptide using a 96 well vacuum dotblot apparatus (Hybri. dot, BRL) and a nitrocellulose membrane (Hybond ECL, Amersham, UK). The nitrocellulose filters were blocked with 0.5% DNA blocking reagent (Boehringer) in 0.1 M maleic acid, 150 mM NaCl, pH7.5.
After 0.5-1 hr, the filters were washed in PBS, 0.05% Tween 20 (Sigma) and incubated with Strepcavidin-HRPO (Southern Biotechnology) in a 1:10.000 dilution. Biotinylated peptides were detected by enhanced chemiluminescence using a Western Blot ECL kit (Amersham). Exposure of the preflashed films (Hyperfilm-ECL, Amersham) was for 10 min. The spots were analysed by scanning the films and using Image Quant/Excel software for analysis.
The affinity of a given peptide for binding DRB1*0401-encoded molecules was related to competition with the marker peptide. This relative binding affinity was defined as the peptide concentration at which the signal was reduced to 50% (IC50).

The test system of test [2] is PBMC from RA patients carrying the DR4 (DRB1*0401) specificity. Briefly: Peptide-induced proliferative responses of PBMC from RA patients. Type of test: cell-based, human. The conditions noted are these: 100 and 10 microgram/ml, 7 days, 3H-thymidine incorporation; for Peptide-induced proliferative response of PBMC, RA 286: RA patient 286, 0401, R; for Peptide-induced proliferative response of PBMC, RA 191: RA patient 191, 0401, R. On the procedure:
This study included 7 DR4(DRB1*0401)-positive patients diagnosed as suffering from RA according to the ARA criteria (Arnett et al., (1988), Arthritis Rheum. 31, 315). Peripheral blood samples were obtained with informed consent. There were five women and two men aged 46-79 years. Their duration of disease ranged from over 10 to over 30 years. Three out of 7 patients had at least 3 swollen joints. […] All patients were on medication: Four patients were treated with prednisone, three patients received anti-rheumatic agents and 4 patients were treated with NSAID's as well.
In order to identify T-cell epitopes within HC gp-39, 59 peptides of 16 AA in length, overlapping by 10 AA were tested for their capacity to induce a proliferative response in PBMC from RA patients and healthy controls carrying the DR4 (DRB1*0401) specificity (Table 1).
PBMC obtained from heparinized venous peripheral blood were isolated by standard centrifugation on a Ficoll-Paque gradient. Cells were cultured in four-fold at a concentration of 1,5×10^5 cells/well in medium supplemented with 10% heat-inactivated, autologous plasma, L-glutamine, 2-ME and antibiotics in flatbottomed microtiter plates. Cells were incubated in medium alone or in the presence of phytohaemagglutinin (PHA) (2:5 μg/ml) to assert cell viability, or in the presence of 10 or 100 μg/ml of the HC gp-39-derived peptides. In several cases, sets of 2 or 3 sequential peptides were tested due to limited PBMC numbers of individual donors. Cultures were incubated in a total volume of 210 μl for 7 days at […] in a humidified atmosphere of 5% CO2. Cultures were pulsed during the last 18 hours with 0.25 μCi ^3H-thymidine ([^3H]TdR). Cells were harvested on glassfiber filters and [^3H] TdR incorporation was measured by gas scintillation (Packard Matrix 96 βcounter). Only peptides inducing a proliferative response at both 10 and 100 μg/ml were considered to contain a T-cell epitope. Responses were defined positive if stimulation index values (SI, antigen-specific counts per 5 min (cp5 m)/background cp5 m) exceeded or equaled 2.
T-cell reactivity to HC gp-39-derived peptide as analyzed by measuring the PBMC proliferative response in DR4 (DRB1*0401)-positive RA patients and healthy donors. Proliferative responses were tested in autologous plasma. In Table IIIA and IIIB the results of 7 experiments are presented showing the responses of RA patients (Table IIIA) and the responses of healthy donors (Table IIIB) to 59 overlapping sequences derived from HC gp-39.
(In general: Incorporation of labelled thymidine or its analogues reports DNA synthesis.)

Test [3] addresses T2, DR4 (DRB1*0401) molecules purified from the homozygous EBV-transformed human B lymphoblastoid cell line … (human, UniProt P01903 26-254).
T2 construct: mature; That form is inferred from purification of the native complex
Briefly: competition binding assay on purified DR4(DRB1*0401).

The term IC50 denotes the concentration needed to halve the response being measured. Higher therefore signals weaker potency in that assay.

Ends that are not written are not given here. A value given as a limit tells only on which side of the number the result lay.

Turning to “DFQGSFCGQDLRFPLT [compound 57, DFQGSFCGQDLRFPLT]”, in test [1], the “Relative affinity of binding to DR4 (DRB1*0401), in words” value (from here on “Relative affinity of binding to DR4”) is “high to intermediate relative affinity” and the IC50 lay within 1 to 10 µM. Consider “DIAKISQHLDFISIMT [compound 29, DIAKISQHLDFISIMT]”, for which, in test [1], the “Relative affinity of binding to DR4” value is “high to intermediate relative affinity” and the IC50 was less than 1 µM. Further, the “Peptide-induced proliferative response of PBMC, RA 259” value in test [2] (RA patient 259, 0401, R) was “pos (positive responses to both 100 and 10 microgram/ml of peptide or sets of peptides (SI≧2 were regarded positive))”. Turning to “DLAWLYPGRRDKQHFT [peptide 20, DLAWLYPGRRDKQHFT]”, in test [1], the “Relative affinity of binding to DR4” value is given as “poor relative affinity” and the IC50 was 100 to 1000 µM. In addition, the “Peptide-induced proliferative response of PBMC, RA 286” value in test [2] was “pos (positive responses to both 100 and 10 microgram/ml of peptide or sets of peptides (SI≧2 were regarded positive))”. With “EICDFLRGATVHRTLG [compound 47, EICDFLRGATVHRTLG]”, in test [1], the “Relative affinity of binding to DR4” value is “high to intermediate relative affinity” and the IC50 was less than 1 µM. The “Peptide-induced proliferative response of PBMC, RA 191” value in test [2] was “pos (positive responses to both 100 and 10 microgram/ml of peptide or sets of peptides (SI≧2 were regarded positive))”. Regarding “GTLAYYEICDFLRGAT [compound 46, GTLAYYEICDFLRGAT]”, in test [1], the “Relative affinity of binding to DR4” value was “high to intermediate relative affinity” and the IC50 was less than 1 µM. For “HGFDGLDLAWLYPGRR [compound 19, HGFDGLDLAWLYPGRR]”, in test [1], the “Relative affinity of binding to DR4” value is recorded as “high to intermediate relative affinity” and the IC50 lay within 10 to 100 µM. Take “NTQSRRTFIKSVPPFL [compound 16, NTQSRRTFIKSVPPFL]”: in test [1], the “Relative affinity of binding to DR4” value is recorded as “high to intermediate relative affinity” and the IC50 is less than 1 µM. Also, the “Peptide-induced proliferative response of PBMC, RA 286” value in test [2] was “pos (positive responses to both 100 and 10 microgram/ml of peptide or sets of peptides (SI≧2 were regarded positive))”. As for “PASKLVMGIPTFGRSF [compound 39, PASKLVMGIPTFGRSF]”, in test [1], the “Relative affinity of binding to DR4” value is recorded as “high to intermediate relative affinity” and the 50% inhibitory concentration (IC50) lay in the range of 1 to 10 µM. Take “PPFLRTHGFDGLDLAW [compound 18, PPFLRTHGFDGLDLAW]”: in test [1], the “Relative affinity of binding to DR4” value is reported as “high to intermediate relative affinity” and the IC50 lay in the range of 10 to 100 µM. Also, in test [2] (RA patient 276, 0401, R), the “Peptide-induced proliferative response of PBMC, RA 276” value was “pos (positive responses to both 100 and 10 microgram/ml of peptide or sets of peptides (SI≧2 were regarded positive))”. For “RGATVHRTLGQQVPYA [compound 48, RGATVHRTLGQQVPYA]”, in test [1], the “Relative affinity of binding to DR4” value is reported as “high to intermediate relative affinity” and the IC50 is 10 to 100 µM. In the same order, the values of “TFIKSVPPFLRTHGFD [compound 17, TFIKSVPPFLRTHGFD]” are “high to intermediate relative affinity” and 1 to 10 µM. On to “TIDSSYDIAKISQHLD [compound 28, TIDSSYDIAKISQHLD]”, for which, in test [1], the “Relative affinity of binding to DR4” value was “high to intermediate relative affinity” and the IC50 was less than 1 µM. In the same order, the values of “VKSKVQYLKDRQLAGA [compound 53, VKSKVQYLKDRQLAGA]” are “high to intermediate relative affinity” and less than 1 µM. In the case of “WALDLDDFQGSFCGQD [compound 56, WALDLDDFQGSFCGQD]”, in test [1], the “Relative affinity of binding to DR4” value was “high to intermediate relative affinity” and the IC50 is less than 1 µM. Also, in test [2], the “Peptide-induced proliferative response of PBMC, RA 191” value is “pos (positive responses to both 100 and 10 microgram/ml of peptide or sets of peptides (SI≧2 were regarded positive))”; the “Peptide-induced proliferative response of PBMC, RA 286” value is “pos (positive responses to both 100 and 10 microgram/ml of peptide or sets of peptides (SI≧2 were regarded positive))”. Take “YREGDGSCFPDALDRF [peptide 3, YREGDGSCFPDALDRF]”: in test [1], the “Relative affinity of binding to DR4” value is listed as “high to intermediate relative affinity” and the IC50 was 10 to 100 µM.

B1: HC gp-39 peptide 41 (residues 262-277) (peptide)
peptide: GRSFTLASSETGVGAP
As to B1, in test [3], the binding result is recorded as “binds”.

B2: HC gp-39 peptide 20 (residues 136-151) (peptide)
peptide: DLAWLYPGRRDKQHFT
Consider B2, for which the binding result in test [3] is recorded as “binds”.

B3: HC gp-39 peptide 55 (residues 346-361) (peptide)
peptide: LAGAMVWALDLDDFQG
As for B3, in test [3], the binding result is “binds”.

B4: HC gp-39 peptide 40 (residues 256-271) (peptide)
peptide: MGIPTFGRSFTLASSE
B4: in test [3], the binding result is reported as “binds”.

B5: HC gp-39 peptide 34 (residues 220-235) (peptide)
peptide: SPLFRGQEDASPDRFS
As to B5, the binding result in test [3] was “binds”.

B6: HC gp-39 peptide 3 (residues 34-49) (peptide)
peptide: YREGDGSCFPDALDRF
Consider B6, for which, in test [3], the binding result is recorded as “binds”.

B7: HC gp-39 peptide 16 (residues 112-127) (peptide)
peptide: NTQSRRTFIKSVPPFL
With B7, the binding result in test [3] is “binds”.

B8: HC gp-39 peptide 2 (residues 28-43) (peptide)
peptide: YTSWSQYREGDGSCFP
Take B8: in test [3], the binding result was “binds”.

B9: HC gp-39 peptide 19 (residues 130-145) (peptide)
peptide: HGFDGLDLAWLYPGRR
Regarding B9, the binding result in test [3] is on record as “binds”.

B10: HC gp-39 peptide 18 (residues 124-139) (peptide)
peptide: PPFLRTHGFDGLDLAW
Consider B10, for which, in test [3], the binding result is given as “binds”.

B11: HC gp-39 peptide 29 (residues 190-205) (peptide)
peptide: DIAKISQHLDFISIMT
Regarding B11, the binding result in test [3] was “binds”.

B12: HC gp-39 peptide 38 (residues 244-259) (peptide)
peptide: MLRLGAPASKLVMGIP
B12: the binding result in test [3] is “binds”.

B13: HC gp-39 peptide 12 (residues 88-103) (peptide)
peptide: PNLKTLLSVGGWNFGS
B13: the binding result in test [3] is given as “binds”.

B14: HC gp-39 peptide 28 (residues 184-199) (peptide)
peptide: TIDSSYDIAKISQHLD
On to B14, for which the binding result in test [3] is “binds”.
